Reference: patent publication US20250388544A1, “HETEROAROMATIC INHIBITORS OF ASTACIN PROTEINASES” (VIVORYON THERAPEUTICS N.V., priority 2019, published 2025)

Columns and labels:
Format in all cases: biochemical
[1] = molecular target: T1, hMeprin α (Homo sapiens, UniProt Q16819); assay: Enzymatic assay, quenched peptide substrate cleavage, method A; details: geometric mean (geometric SD factor in parentheses), read-out: Meprin alpha IC50
T1 sequence (Q16819 66-746): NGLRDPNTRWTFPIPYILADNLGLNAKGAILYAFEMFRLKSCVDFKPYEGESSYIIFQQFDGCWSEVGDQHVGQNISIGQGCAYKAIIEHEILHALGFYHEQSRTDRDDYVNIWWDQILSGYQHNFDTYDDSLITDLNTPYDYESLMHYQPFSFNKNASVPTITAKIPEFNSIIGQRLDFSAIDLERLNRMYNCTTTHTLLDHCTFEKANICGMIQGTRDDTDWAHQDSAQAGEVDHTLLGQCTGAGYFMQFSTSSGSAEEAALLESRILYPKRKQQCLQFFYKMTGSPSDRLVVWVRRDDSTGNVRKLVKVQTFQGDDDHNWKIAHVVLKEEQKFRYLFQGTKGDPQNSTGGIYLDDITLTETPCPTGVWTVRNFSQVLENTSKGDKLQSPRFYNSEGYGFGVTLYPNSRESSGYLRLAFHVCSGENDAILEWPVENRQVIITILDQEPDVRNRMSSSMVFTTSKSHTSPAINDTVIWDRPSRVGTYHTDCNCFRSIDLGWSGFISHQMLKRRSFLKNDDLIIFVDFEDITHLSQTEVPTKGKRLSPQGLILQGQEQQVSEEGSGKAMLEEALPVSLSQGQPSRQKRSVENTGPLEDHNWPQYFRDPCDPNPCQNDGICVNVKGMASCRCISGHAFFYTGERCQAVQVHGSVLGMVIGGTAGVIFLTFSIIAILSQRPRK
Method: (§1) The determination of enzymatic activity was based on the cleavage of internally quenched peptide substrates. A typical assay of 250 μl total volume measured in black 96 well plates consisted of 100 μl buffer, 50 μl enzyme at a final concentration of 5e-8 M to 2e-10 M, 50 μl substrate (0.15 to 80 μM, in buffer, 0.5% DMSO) and 50 μl inhibitor solution (in buffer, 1% DMSO). In case of 125 μl assay volume (black 96 half area well plates) all volumes were cut in half. Enzymatic activity of ADAMs was measured in 384 well plates with 60 μl total assay volume consisting of 20 μl inhibitor, 20 μl buffer, 10 μl enzyme and 10 μl substrate.
(§2) Based on method B Ki^(app) values were determined using Morrison's equation. All measurements were performed using a fluorescence plate reader (FLUOSTAR OPTIMA, BMG Labtech) at 30° C. The kinetic parameters were determined at least in duplicates on separate days. The excitation/emission wavelength was 340/420 nm. The kinetic data was evaluated using GRAFIT software (version 7.0.3, Erithacus Software).

[2] = molecular target: T2, hMeprin β (Homo sapiens, UniProt Q16820); assay: as above; details: geometric mean (geometric SD factor in parentheses), read-out: Meprin beta IC50
T2 sequence (Q16820 62-701): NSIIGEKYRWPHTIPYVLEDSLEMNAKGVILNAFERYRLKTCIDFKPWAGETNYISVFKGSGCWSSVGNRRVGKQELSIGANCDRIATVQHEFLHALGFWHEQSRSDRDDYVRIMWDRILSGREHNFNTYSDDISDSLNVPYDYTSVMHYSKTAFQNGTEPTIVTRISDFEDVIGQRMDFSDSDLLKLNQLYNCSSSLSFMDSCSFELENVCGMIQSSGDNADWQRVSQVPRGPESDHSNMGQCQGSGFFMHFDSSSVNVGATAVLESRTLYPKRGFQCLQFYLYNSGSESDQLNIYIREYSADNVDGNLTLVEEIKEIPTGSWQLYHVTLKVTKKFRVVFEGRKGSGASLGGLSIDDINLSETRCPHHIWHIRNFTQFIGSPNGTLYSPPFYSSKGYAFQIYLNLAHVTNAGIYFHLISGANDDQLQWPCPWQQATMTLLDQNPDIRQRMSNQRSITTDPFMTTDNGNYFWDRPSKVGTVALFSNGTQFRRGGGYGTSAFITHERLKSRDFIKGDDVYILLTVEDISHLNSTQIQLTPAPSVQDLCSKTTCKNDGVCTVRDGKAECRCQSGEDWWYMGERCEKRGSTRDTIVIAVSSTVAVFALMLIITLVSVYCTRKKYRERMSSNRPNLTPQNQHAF
Method: as §1, §2

[3] = molecular target: T3, hADAM 10 (Homo sapiens, UniProt O14672); assay: Residual enzyme activity of other metalloproteases; details: read-out: Residual enzyme activity ADAM10; for remaining activity at 10 µM: 10 μM inhibitor; for remaining activity at 200 µM: 200 μM inhibitor
T3 construct: purchased R&D systems
T3 sequence (O14672 214-748): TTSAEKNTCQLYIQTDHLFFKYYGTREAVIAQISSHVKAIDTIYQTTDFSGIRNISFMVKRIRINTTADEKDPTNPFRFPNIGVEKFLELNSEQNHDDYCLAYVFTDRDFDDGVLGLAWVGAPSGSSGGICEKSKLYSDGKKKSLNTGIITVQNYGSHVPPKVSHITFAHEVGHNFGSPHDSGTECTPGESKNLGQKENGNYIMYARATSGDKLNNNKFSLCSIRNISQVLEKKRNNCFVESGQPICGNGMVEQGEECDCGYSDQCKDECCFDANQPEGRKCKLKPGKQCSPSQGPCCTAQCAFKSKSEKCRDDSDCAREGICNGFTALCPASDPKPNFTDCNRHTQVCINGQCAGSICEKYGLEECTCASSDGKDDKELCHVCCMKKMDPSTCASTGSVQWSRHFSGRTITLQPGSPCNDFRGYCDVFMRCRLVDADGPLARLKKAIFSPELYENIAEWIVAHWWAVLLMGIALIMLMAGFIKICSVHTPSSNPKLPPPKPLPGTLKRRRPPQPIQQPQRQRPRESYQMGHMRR
Method: as §1

[4] = molecular target: T4, hADAM 17 (Homo sapiens, UniProt P78536); assay: Residual enzyme activity of other metalloproteases; details: read-out: Residual enzyme activity ADAM17; for remaining activity at 10 µM: 10 μM inhibitor; for remaining activity at 200 µM: 200 μM inhibitor
T4 construct: purchased R&D systems
T4 sequence (P78536 215-824): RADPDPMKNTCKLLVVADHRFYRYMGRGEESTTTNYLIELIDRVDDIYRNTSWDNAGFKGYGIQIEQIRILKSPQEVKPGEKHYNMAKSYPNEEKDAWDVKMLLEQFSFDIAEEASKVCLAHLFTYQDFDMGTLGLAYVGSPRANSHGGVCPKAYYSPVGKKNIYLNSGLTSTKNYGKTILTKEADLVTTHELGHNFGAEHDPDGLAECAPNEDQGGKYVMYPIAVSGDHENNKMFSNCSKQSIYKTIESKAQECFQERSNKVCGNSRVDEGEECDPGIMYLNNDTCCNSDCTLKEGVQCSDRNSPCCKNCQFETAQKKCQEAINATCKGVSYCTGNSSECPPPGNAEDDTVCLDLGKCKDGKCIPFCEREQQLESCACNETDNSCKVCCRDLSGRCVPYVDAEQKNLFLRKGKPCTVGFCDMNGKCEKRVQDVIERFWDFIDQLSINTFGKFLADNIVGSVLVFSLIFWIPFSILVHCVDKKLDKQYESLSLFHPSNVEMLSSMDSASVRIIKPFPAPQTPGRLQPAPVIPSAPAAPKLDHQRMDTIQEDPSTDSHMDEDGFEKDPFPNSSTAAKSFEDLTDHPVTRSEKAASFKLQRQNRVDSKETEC
Method: as §1

SMILES	IC50 [1] [nM]	IC50 [2] [nM]	remaining activity at 10 µM [3] [%]	remaining activity at 200 µM [3] [%]	remaining activity at 10 µM [4] [%]	remaining activity at 200 µM [4] [%]
O=C(Cc1c(-c2ccccc2)n[nH]c1-c1ccccc1)NO [Example 1, 2-(3,5-Diphenyl-1H-pyrazol-4-yl)ethanehydroxamic acid]	4	204	73	23	61	7
O=C(Cc1c(-c2ccccc2)noc1-c1ccccc1)NO [Example 2, 2-(3,5-Diphenylisoxazol-4-yl)ethanehydroxamic acid]	7	831	80	22	62	9
O=C(CCc1c(-c2ccccc2)n[nH]c1-c1ccccc1)NO [Example 3, 3-(3,5-Diphenyl-1H-pyrazol-4-yl)propanehydroxamic acid]	108	8070	66	12	76	27
O=C(CCc1c(-c2ccccc2)noc1-c1ccccc1)NO [Example 4, 3-(3,5-Diphenylisoxazol-4-yl)propanehydroxamic acid]	32	13700	75	21	75	24
O=C(Cn1c(-c2ccccc2)nnc1-c1ccccc1)NO [Example 7, 2-(3,5-Diphenyl-1,2,4-triazol-4-yl)ethanehydroxamic acid]	69	8710	89	83	90	56
O=C(Cn1c(-c2ccccc2)ccc1-c1ccccc1)NO [Example 9, 2-(2,5-Diphenylpyrrol-1-yl)ethanehydroxamic acid]	34	4320	83	29	82	25
O=C(Cn1c(-c2ccccc2)nc2ccccc21)NO [Example 13, 2-(2-Phenylbenzimidazol-1-yl)ethanehydroxamic acid]	173	1630	87	76	92	56
O=C(Cn1c(-c2ccccc2)cc2ccccc21)NO [Example 25, 2-(2-Phenylindol-1-yl)ethanehydroxamic acid]	72	1140	89	68	88	56
O=C(Cc1c(-c2ccccc2)nn(Cc2ccc(C(=O)O)cc2)c1-c1ccccc1)NO [Example 40, 4-[[4-(2-(Hydroxyamino)-2-oxo-ethyl]-3,5-diphenyl-1H-pyrazol-1-yl]methyl]benzoic acid]	–	–	91	43	67	9
O=C(Cc1c(-c2ccccc2)nn(Cc2cccc(C(=O)O)c2)c1-c1ccccc1)NO [Example 41, 3-[[4-[2-(Hydroxyamino)-2-oxo-ethyl]-3,5-diphenyl-1H-pyrazol-1-yl]methyl]benzoic acid]	–	–	92	66	84	25
O=C(Cc1c(-c2ccccc2)nn(Cc2ccc(Cl)c(O)c2F)c1-c1ccccc1)NO [Example 42, 2-[1-(4-Chloro-2-fluoro-3-hydroxybenzyl)-3,5-diphenyl-1H-pyrazol-4-yl]ethanehydroxamic acid]	–	–	85	34	72	14
O=C(Cc1c(-c2ccccc2)nn(Cc2ccc3c(c2)OCO3)c1-c1ccccc1)NO [Example 43, 2-[1-(1,3-Benzodioxol-5-ylmethyl)-3,5-diphenyl-1H-pyrazol-4-yl]ethanehydroxamic acid]	–	–	69	39	21	4
COc1cccc(-c2n[nH]c(-c3ccccc3)c2CC(=O)NO)c1 [Example 47, 2-[3-(3-Methoxyphenyl)-5-phenyl-1H-pyrazol-4-yl]ethanehydroxamic acid]	–	–	68	8	52	6
COc1ccc(-c2n[nH]c(-c3ccccc3)c2CC(=O)NO)cc1OC [Example 49, 2-[3-(3,4-Dimethoxyphenyl)-5-phenyl-1H-pyrazol-4-yl]ethanehydroxamic acid]	–	–	87	13	65	6
O=C(Cc1c(-c2ccc3c(c2)OCO3)n[nH]c1-c1ccccc1)NO [Example 50, 2-[3-(1,3-Benzodioxol-5-yl)-5-phenyl-1H-pyrazol-4-yl]ethanehydroxamic acid]	–	–	59	5	51	5
O=C(Cc1c(-c2cc(F)c(O)c(Cl)c2)n[nH]c1-c1ccccc1)NO [Example 54, 2-[3-(3-Chloro-5-fluoro-4-hydroxy-phenyl)-5-phenyl-1H-pyrazol-4-yl]ethanehydroxamic acid]	–	–	104	61	68	5
O=C(Cc1c(-c2cccc(C(=O)O)c2)n[nH]c1-c1ccc(Cl)c(O)c1F)NO [Example 63, 3-[5-(4-Chloro-2-fluoro-3-hydroxy-phenyl)-4-[2-(hydroxyamino)-2-oxo-ethyl]-1H-pyrazol-3-yl]benzoic acid]	–	–	90	74	99	91
